Key:
Type in all cases: cell-based
BT-549 = test: Cell viability assay (AlamarBlue); details: BT-549, 72 hours
Description: (§1) FIGS. 22A and 22D are graphs showing results of cytotoxicity assays for MDA-MB-468 (FIG. 22A) and BT-549 (FIG. 22D). […] Stated cell lines were plated in 96-well plates (3000 cells per well) in the presence of the stated concentration of inhibitor. After 72 hours, the number of viable cells was analyzed by AlamarBlue®. Proliferation inhibition 50% (PI50) values were calculated by fitting data to “PI50 equation” (EQN 4) (FIG. 22C). MDA cells were transfected with the stated siRNA using lipofectamine 3000 for 12 hours. […] After 72 hours, the number of viable cells was calculated using AlamarBlue®. FIG. 22F is a schematic showing AlamarBlue® viability assay. […] MDA-MB-468 cells were treated with the stated drugs for 72 hours at the PI60 and PI80. After this time, cells were harvested, fixed/permeabilized with ethanol and DNA content was stained using propidium iodide (visualized in the 488-3 channel). RNA was removed simultaneously using RNAse. After 30 min at room temperature, cells were analyzed by flow cytometry.
(§2) Indicated cells were plated in a 96-well plate containing the DMEM complete medium (see Example 11 for complete medium formulation, 100 μL per well) with a density of 3,000-5,000 cells per well for 12 hours followed by the addition of varying concentrations of inhibitors in rinse medium (100 μL). The cells were allowed to grow for 72 hours and 100 μL of the culture medium was removed from each well. This was followed by the addition of 10 μL AlamarBlue® reagent to each well. The fluorescence emission signals at 590 nm were read by Cytation 3 cell imaging multi-mode reader (BioTeK) using an excitation wavelength of 560 nm. Curve fitting and data analysis were performed using Prism software.

MDA-MB-468 = test: Cell viability assay (AlamarBlue); details: MDA-MB-468, 72 hours
Description: as §1, §2

Akt2 (pT309) = molecular target: T1, Akt2 (pT309) (Homo sapiens, UniProt P31751); test: Western blot and ratiometric ELISA of Akt phosphorylation in HEK293T cells; details: 5 μM, 48 hours
T1 construct: expressed in transfected cells; host or cells: HEK293T
T1 sequence (P31751 whole entry): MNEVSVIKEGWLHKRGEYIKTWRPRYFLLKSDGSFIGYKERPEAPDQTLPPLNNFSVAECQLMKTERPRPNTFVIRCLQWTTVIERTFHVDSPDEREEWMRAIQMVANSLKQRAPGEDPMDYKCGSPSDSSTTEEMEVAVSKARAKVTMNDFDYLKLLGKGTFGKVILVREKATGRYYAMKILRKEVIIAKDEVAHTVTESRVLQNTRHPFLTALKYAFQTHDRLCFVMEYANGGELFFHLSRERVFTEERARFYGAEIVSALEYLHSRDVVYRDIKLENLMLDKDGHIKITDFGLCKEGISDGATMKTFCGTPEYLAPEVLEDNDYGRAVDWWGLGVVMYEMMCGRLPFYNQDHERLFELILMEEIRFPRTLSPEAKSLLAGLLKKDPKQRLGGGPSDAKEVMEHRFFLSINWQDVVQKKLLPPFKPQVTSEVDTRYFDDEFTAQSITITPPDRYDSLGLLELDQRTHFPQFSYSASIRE

Row | SMILES | toxicity / potency relative to MK-2206 (BT-549) | toxicity / potency relative to MK-2206 (MDA-MB-468) | phosphorylation level of Akt2 (Akt2 (pT309))
1 | C#CCCCC(F)/C=C/C(=O)NC1(c2ccc(-c3nc4ccn5c(=O)[nH]nc5c4cc3-c3ccccc3)cc2)CCC1.Cl (stereo not drawn) [MK-FNE, (E)-8-(4-(1-(4-Fluoronon-2-en-8-ynamido)cyclobutyl)phenyl)-3-oxo-9-phenyl-2,3-dihydro-[1,2,4]triazolo[3,4-f][1,6]naphthyridin-7-ium Chloride] | similarly potent to MK-2206 | similarly potent to MK-2206 | 
2 | C#CCCCC(O)/C=C/C(=O)NC1(c2ccc(-c3nc4ccn5c(=O)[nH]nc5c4cc3-c3ccccc3)cc2)CCC1.Cl (stereo not drawn) [MK-HNE, (E)-8-(4-(1-(4-Hydroxynon-2-en-8-ynamido)cyclobutyl)phenyl)-3-oxo-9-phenyl-2,3-dihydro-[1,2,4]triazolo[3,4-f][1,6]naphthyridin-7-ium Chloride] |  |  | did not affect phosphorylation levels
